# Test results from PMC3769965 (Biochemistry, 2013).
# Target: Eis_Msm (Mycolicibacterium smegmatis, UniProt A0QY29)
# Experiment: DTNB initial rate
# Assay type: biochemical
# Conditions: AcCoA, 50 mM Tris-HCl pH 8.0
smiles,measurement,value
"NC[C@@H]1O[C@H](O[C@H]2[C@@H](O)[C@H](O[C@@H]3[C@@H](O)[C@H](N)C[C@H](N)[C@H]3O[C@H]3O[C@H](CO)[C@@H](O)[C@H](O)[C@H]3N)O[C@@H]2CO)[C@H](N)[C@@H](O)[C@@H]1O [PAR, paromomycin]",DTNB initial rate (CoA release); LCMS of tri-acetylation,"with Eis_Mtb, Eis_Msm, and all Eis_Mtb-mutants, PAR was always tri-acetylated"
